Data set [1] deals with Staphylococcus aureus UC9213 or Streptococcus species. Briefly: Antimicrobial activity in vivo, Murine Assay (mice infected intraperitoneally with bacteria; ED50 from survival over six days). The settings on record: 144 h, female mice, treatment one hour and five hours after infection. The procedure: Antimicrobial activity was tested in vivo using the Murine Assay procedure. Groups of female mice (six mice of 18-20 grams each) were injected intraperitoneally with bacteria which were thawed just prior to use and suspended in brain heart infusion with 4% brewers yeast UC9213 (Staphylococcus aureus) or brain heart infusion (Streptococcus species). Antibiotic treatment at six dose levels per drug was administered one hour and five hours after infection by either oral intubation or subcutaneous ("subcut.") routes. Survival was observed daily for six days. ED50 values based on mortality ratios were calculated using probit analysis. The subject compounds were compared against a well-known antimicobial (Vancomycin) as a control.

Data set [2] in a line: Aqueous solubility (pH 7, phosphate buffer). It is filed as physicochemical.

Structures are written as SMILES. Converted amounts (≈) assume the structure as drawn. Structures can show the parent of a compound that is named as a salt.

With `CC(=O)NC[C@H]1CN(c2ccc(N3CCN(C(=O)COC(=O)CCN4CCOCC4)CC3)c(F)c2)C(=O)O1` [Example 1, 3-(4-Morpholinyl)propionic acid, 2-(4-(4-(5-((acetylamino)methyl)-2-oxo-3-oxazolidinyl)-2-fluorophenyl)-1-piperazinyl)-2-oxoethyl ester, (S)], the ED50 turned out to be 5 mg/kg in data set [1] (oral) and 4 mg/kg in data set [1] (sc, subcut.). The molecule further registered a solubility in data set [2] of 36000 µg/mL (≈ 67.2 mM).
In the case of `CC(=O)NC[C@H]1CN(c2ccc(N3CCN(C(=O)COC(=O)c4cccnc4)CC3)c(F)c2)C(=O)O1` [Example 2, Nicotinic acid, 2-[4-[4-[5-[(acetylamino)methyl]-2-oxo-3-oxazolidinyl]-2-fluorophenyl]-1-piperazinyl]-2-oxoethyl ester, (S)-], the ED50 stood at 9 mg/kg in data set [1] (oral) and 15 mg/kg in data set [1] (sc, subcut.). The solubility in data set [2] came to 300 µg/mL (≈ 0.601 mM).
As to `CC(=O)NC[C@H]1CN(c2cc(F)c(N3CCN(C(=O)COC(=O)c4cccnc4)CC3)c(F)c2)C(=O)O1` [Example 3, Nicotinic acid, 2-[4-[4-[5-[(acetylamino)methyl]-2-oxo-3-oxazolidinyl]-2,6-difluorophenyl]-1-piperazinyl]-2-oxoethyl ester, (S)-6], the ED50 in data set [1] (oral) was 16 mg/kg; in data set [1] (sc, subcut.) it was 8 mg/kg. Further, the concentration in solution in data set [2] (solubility) came to 50 µg/mL (≈ 0.0966 mM).
With `CC(=O)NC[C@H]1CN(c2ccc(N3CCN(C(=O)COC(=O)n4ccnc4)CC3)c(F)c2)C(=O)O1` [Example 4, 1H-imidazole-1-carboxylic acid, 2-[4-[4-[5-[(acetylamino)methyl]-2-oxo-3-oxazolidinyl]-2-fluorophenyl]-1-piperazinyl]-2-oxoethyl ester, (S)-], the 50% effective dose (ED50) in data set [1] (oral) stood at 2 mg/kg; in data set [1] (sc, subcut.), 2 mg/kg. The molecule further came in with a solubility in data set [2] of 1400 µg/mL (≈ 2.87 mM).
As for `CC(=O)NC[C@H]1CN(c2cc(F)c(N3CCN(C(=O)COC(=O)n4ccnc4)CC3)c(F)c2)C(=O)O1` [Example 5, 1H-imidazole-1-carboxylic acid, 2-[4-[4-[5-[(acetylamino)methyl]-2-oxo-3-oxazolidinyl]-2,6-difluorophenyl]-1-piperazinyl]-2-oxoethyl ester, (S)-], the median effective dose (ED50) in data set [1] (oral) amounted to 7 mg/kg; in data set [1] (sc, subcut.), 5 mg/kg.
As for `COCCOC(=O)OCC(=O)N1CCN(c2ccc(N3C[C@H](CNC(C)=O)OC3=O)cc2F)CC1` [Example 6, Carbonic acid, 2-[4-[4-[5-[(acetylamino)methyl]-2-oxo-3-oxazolidinyl]-2-fluorophenyl]-1-piperazinyl]-2-oxoethyl ester-2-methoxyethyl ester, (S)], the ED50 was determined as 2 mg/kg in data set [1] (oral) and 2 mg/kg in data set [1] (sc, subcut.). In addition, the solubility in data set [2] stood at 2900 µg/mL (≈ 5.84 mM).
As for `CC(=O)NC[C@H]1CN(c2ccc(N3CCN(C(=O)COC(=O)c4ccc(N(C)C)cc4)CC3)c(F)c2)C(=O)O1` [Example 7, 4-dimethylaminobenzoic acid, 2-[4-[4-[5-[(acetylamino)methyl]-2-oxo-3-oxazolidinyl]-2-fluorophenyl]-1-piperazinyl]-2-oxoethyl ester, (S)-], the ED50 is above 20 mg/kg in data set [1] (oral) and 1 mg/kg in data set [1] (sc, subcut.). In data set [2], the concentration in solution (solubility) came to 10 µg/mL (≈ 0.0185 mM).
With `CC(=O)NC[C@H]1CN(c2cc(F)c(N3CCN(C(=O)COC(=O)c4ccc(N(C)C)cc4)CC3)c(F)c2)C(=O)O1` [Example 8, 4-dimethylaminobenzoic acid, 2-[4-[4-[5-[(acetylamino)methyl]-2-oxo-3-oxazolidinyl]-2,6-difluorophenyl]-1-piperazinyl]-2-oxoethyl ester, (S)-], the ED50 in data set [1] (oral) amounted to 10 mg/kg; in data set [1] (sc, subcut.), 6 mg/kg. Moreover, in data set [2], the concentration in solution (solubility) came to 10 µg/mL (≈ 0.0179 mM).
In the case of `CC(=O)NC[C@H]1CN(c2ccc(N3CCN(C(=O)COC(=O)CN(C)C)CC3)c(F)c2)C(=O)O1` [Example 9, Glycine, N,N-dimethyl-, 2-[4-[4-[5-[(acetylamino)methyl]-2-oxo-oxazolidinyl]-2-fluorophenyl]-1-piperazinyl]-2-oxoethyl ester, (S)-], the ED50 in data set [1] (oral) was determined as 2 mg/kg; in data set [1] (sc, subcut.), 3 mg/kg. This molecule registered a solubility in data set [2] of 150000 µg/mL (≈ 313 mM).
As to `CC(=O)NC[C@H]1CN(c2cc(F)c(N3CCN(C(=O)COC(=O)CN(C)C)CC3)c(F)c2)C(=O)O1` [Example 10, Glycine, N,N-dimethyl-, 2-[4-[4-[5-[(acetylamino)methyl]-2-oxo-3-oxazolidinyl]-2,6-difluorophenyl]-1-piperazinyl]-2-oxoethyl ester, (S)-], the ED50 in data set [1] (oral) was 1 mg/kg; in data set [1] (sc, subcut.), 2 mg/kg. In data set [2], this molecule showed a solubility of 4200 µg/mL (≈ 8.44 mM).
As for `CC(=O)NC[C@H]1CN(c2ccc(N3CCN(C(=O)COC(=O)CCN(C)C)CC3)c(F)c2)C(=O)O1` [Example 11, 3-(Dimethylamino)propanoic acid, 2-[4-[4-[5-[(acetylamino)methyl]-2-oxo-3-oxazolidinyl]-2-fluorophenyl]-1-piperazinyl]-2-oxoethyl ester, (S)-], the ED50 in data set [1] (oral) came out at 8 mg/kg; in data set [1] (sc, subcut.) it was 8 mg/kg.
Take `CC(=O)NC[C@H]1CN(c2ccc(N3CCN(C(=O)COC(=O)CCCN(C)C)CC3)c(F)c2)C(=O)O1` [Example 12, 4-(Dimethylamino)butanoic acid, 2-[4-[4-[5-[(acetylamino)methyl]-2-oxo-3-oxazolidinyl]-2-fluorophenyl]-1-piperazinyl]-2-oxoethyl ester, (S)-]: the ED50 in data set [1] (oral) is 12 mg/kg; in data set [1] (sc, subcut.), above 20 mg/kg. The molecule also displayed a solubility in data set [2] of 34600 µg/mL (≈ 68.2 mM).
On to `CC(=O)NC[C@H]1CN(c2ccc(N3CCN(C(=O)COC(=O)CN4CCN(C)CC4)CC3)c(F)c2)C(=O)O1` [Example 13, (4-Methyl-1-piperazinyl)acetic acid, 2-[4-[4-[5-[(acetylamino)methyl]-2-oxo-3-oxazolidinyl]-2-fluorophenyl]-1-piperazinyl]-2-oxoethyl ester, (S)-], for which the ED50 is above 20 mg/kg in data set [1] (oral) and above 20 mg/kg in data set [1] (sc, subcut.). This molecule registered a solubility in data set [2] of 79100 µg/mL (≈ 148 mM).
Take `CC(=O)NC[C@H]1CN(c2cc(F)c(N3CCN(C(=O)COC(C)=O)CC3)c(F)c2)C(=O)O1` [Example 14, Acetic acid, 2-(4-(4-(5-((acetylamino)methyl)-2-oxo-3-oxazolidinyl)-2,6-difluorophenyl)-1-piperazinyl)-2-oxoethyl ester, (S)]: in data set [1] (oral), the ED50 stood at 3 mg/kg. The molecule also showed a solubility in data set [2] of 1600 µg/mL (≈ 3.52 mM).
Take `CC(=O)NC[C@H]1CN(c2cc(F)c(N3CCN(C(=O)COC(=O)CCC(=O)O)CC3)c(F)c2)C(=O)O1` [Example 15, Succinic acid, 2-(4-(4-(5-((acetylamino)methyl)-2-oxo-3-oxazolidinyl)-2,6-difluorophenyl)-1-piperazinyl)-2-oxoethyl monoester, (S)]: the concentration in solution in data set [2] (solubility) came to 12300 µg/mL (≈ 24 mM).
For the molecule `CC(=O)NC[C@H]1CN(c2cc(F)c(N3CCN(C(=O)COC(=O)CCC(=O)O)CC3)c(F)c2)C(=O)O1` [Example 16, Succinic acid, 2-(4-(4-(5-((acetylamino)methyl)-2-oxo-3-oxazolidinyl)-2,6-difluorophenyl)-1-piperazinyl)-2-oxoethyl monoester, sodium salt, (S)], the 50% effect level in data set [1] (oral) (ED50) was put at a dose of 4 mg/kg.
Turning to `CC(=O)NC[C@H]1CN(c2ccc(N3CCN(C(=O)COC(=O)CCC(=O)O)CC3)c(F)c2)C(=O)O1` [Example 17], the ED50 amounted to 5 mg/kg in data set [1] (oral) and 2 mg/kg in data set [1] (sc, subcut.). In data set [2], this molecule registered a solubility of 28000 µg/mL (≈ 56.6 mM).
The matching figures for `CC(=O)CCC(=O)OCC(=O)N1CCN(c2c(F)cc(N3C[C@H](CNC(C)=O)OC3=O)cc2F)CC1` [Example 18, 4-Oxo-valeric acid, 2-(4-(4-(5-((acetylamino)methyl)-2-oxo-3-oxazolidinyl)-2,6-difluorophenyl)-1-piperazinyl)-2-oxoethyl ester, (S)]: 14 mg/kg, above 20 mg/kg and 1200 µg/mL (≈ 2.35 mM).
Molecule `CC(=O)CCC(=O)OCC(=O)N1CCN(c2ccc(N3C[C@H](CNC(C)=O)OC3=O)cc2F)CC1` [Example 19, 4-Oxo-valeric acid, 2-(4-(4-(5-((acetylamino)methyl)-2-oxo-3-oxazolidinyl)-2-fluorophenyl)-1-piperazinyl)-2-oxoethyl monoester, (S)] registered a solubility in data set [2] of 2290 µg/mL (≈ 4.65 mM).
As for `CC(=O)NC[C@H]1CN(c2ccc(N3CCN(C(=O)COP(=O)(O)O)CC3)c(F)c2)C(=O)O1` [Example 20, Phosphoric acid, 2-(4-(4-(5-((acetylamino)methyl)-2-oxo-3-oxazolidinyl)-2-fluorophenyl)-1-piperazinyl)-2-oxoethyl ester, (S)], the ED50 in data set [1] (oral) turned out to be 6 mg/kg; in data set [1] (sc, subcut.) it was 4 mg/kg. The molecule further displayed a solubility in data set [2] of 25700 µg/mL (≈ 54.2 mM).
Consider `CC(=O)NC[C@H]1CN(c2ccc(N3CCN(C(=O)COC(=O)c4ccc(N)cc4)CC3)c(F)c2)C(=O)O1` [Example 21, 4-aminobenzoic acid, 2-[4-[4-[5-[(acetylamino)methyl]-2-oxo-3-oxazolidinyl]-2-fluorophenyl]-1-piperazinyl]-2-oxoethyl ester, (S)-], for which the ED50 in data set [1] (oral) came out at 8 mg/kg; in data set [1] (sc, subcut.), 13 mg/kg. Also, the concentration in solution in data set [2] (solubility) was 30 µg/mL (≈ 0.0584 mM).
In turn, `CC(=O)NC[C@H]1CN(c2cc(F)c(N3CCN(C(=O)COC(=O)CO)CC3)c(F)c2)C(=O)O1` [Example 24, Hydroxyacetic acid, 2-[4-[4-[5-[(acetylamino)methyl]-2-oxo-3-oxazolidinyl]-2,6-difluorophenyl]-1-piperazinyl]-2-oxoethyl ester,] returned an ED50 in data set [1] (oral) of 1 mg/kg.
`CC(=O)NC[C@H]1CN(c2ccc(N3CCN(C(=O)COC(=O)c4ccc(NC(=O)CN(C)C)cc4)CC3)c(F)c2)C(=O)O1` [Example 28, 4-N-(N,N-dimethylglycinyl)aminobenzoic acid, 2-[4-[4-[5-[(acetylamino)methyl]-2-oxo-3-oxazolidinyl]-2-fluorophenyl]-1-piperazinyl]-2-oxoethyl ester, (S)-] showed a solubility in data set [2] of 90 µg/mL (≈ 0.15 mM).

The ED50 is the dose at which the effect has come halfway, by size or by number of responders. What is called solubility is the concentration that dissolves in the medium under given conditions. Low readings indicate little dissolved substance, high ones much dissolved substance.
